# Laboratory results taken from PMC2063203, “The renal effects of the water-soluble, non-folylpolyglutamate synthetase-dependent thymidylate synthase inhibitor ZD9331 in mice” (British Journal of Cancer, 1998).
# “And” between values parts separate entries of the source, which are not always exact repeats. Identical values can stand only once. Like-named read-outs stand apart in the source and are kept apart here.
# What was measured:
# [1] = Plasma pharmacokinetics of ZD9331 (HPLC, non-compartmental); assay type: in vivo, mice; conditions: for AUC(0-t): read-out: AUC0-8h; for concentration at 4 h: read-out: plasma drug concentration at 4 h; for Cmax / Tmax: mouse
# Procedure: (§1) British Journal of Cancer (1998) 78(11), 1457-1463 ? […] In contrast to Tomudex (ZD1694), ZD9331 may therefore be active against tumours with low FPGS activity. […] In view of the history of renal toxicity with some earlier TS inhibitors and the possible therapeutic use of bolus ZD9331, we have examined the effects of bolus ZD9331 dose and route of administration on plasma and kidney pharmacokinetics and renal function in mice. Renal function was assessed by measuring [14C]inulin clearance, and drug concentrations were assayed by reverse-phase high-performance liquid chromatography (HPLC). […] Kidney drug concentrations were slightly elevated in iv.- versus i.p.-treated animals at the low dose (50 mg kg-'), with a correspondingly larger area under the curve. However, at the highest dose (200 mg kg-'), peak kidney drug concentrations were 20-fold higher following i.v. administration than after i.p., with marked kidney retention, resulting in a 50-fold greater kidney drug exposure for the i.v. versus the i.p. route. […] These adverse effects can be readily overcome by i.p. administration, indicating the likely need for short infusions in clinical settings. […] Early studies established that nephrotoxicity may be a result of poor aqueous solubility of 2-amino compounds such as CB3717, and it was shown that 2-desamino CB3717 was more water soluble and less nephrotoxic (Jones et al, 1989; 1996). […] These polyglutamate forms also exibit intra- cellular retention, which may contribute to toxicity as well as anti- tumour activity. […] Such compounds might be expected to show activity in a different spectrum of tumours from ZD1694 and to have a more manageable toxicity profile because of the lack of retained cyto- toxic metabolites. […] MATERIALS AND METHODS Drug administration and animals The compound ZD933 1 (Figure 1) was provided as a white crystalline salt. ['4C]inulin was provided as a carboxylic acid (Amersham, UK, 250 µCi in 5 ml, specific activity 6.6 mCi mmol-') and diluted to an activity of 5 µCi ml-' in phosphate-buffered saline (PBS). ZD9331 was dissolved in 0.05 M sodium bicarbonate, 1457 1458 Ml Walton et al ~~ N Ny~~~14COOHH 0 H IN H N CH ~~~~H , 4 H3C N3 H Figure 1 The chemical structure of ZD9331 adjusted to pH 9.0 and administered either i.v. via the tail vein or i.p. at 0.01 ml g-' mouse body weight. [14C]inulin was administered at 0.05 gCi g-' (i.e. 0.01 ml g-') i.v. via the tail vein. Adult female DBA-2 mice were obtained from OLAC (Bicester, UK) and used at 8-12 weeks of age at a body weight of 15-25 g. Mice were housed in cages containing untreated sawdust and allowed access to food and water ad libitum. Sample preparation Plasma and tissue samples were prepared using standard tech- niques (Walton et al, 1996). Briefly, whole blood was obtained by cardiac puncture into heparinized syringes from halothane- anaesthetized mice. Plasma was prepared by centrifugation at 12 000 r.p.m. x 2 min in a bench-top microcentrifuge. Kidney and liver tissues were rapidly removed, washed and snap frozen on dry ice. Frozen plasma and tissues were stored at -20?C for up to 4 weeks prior to analysis. Individual samples were thawed on ice and handled rapidly. ZD9331 was extracted from whole plasma or tissue homogenates (33% w/v in 0.1 M Tris, pH 10.0) by the addition of an equal volume of acetonitrile, mixing and centrifugation and the super- natant removed for injection into the HPLC system. Samples were diluted with Tris buffer (0.1 M, pH 10.0) on to the linear part of the calibration curve prior to HPLC analysis. Extraction efficiencies were >95%. HPLC analysis Concentrations of ZD9331 were measured in biological samples using reversed phase HPLC on equipment supplied by Kontron (Watford, UK). Separations were carried out using stainless-steel columns heated at 45?C and packed with C18 Supelcosil ODS (10 cm x 4.6 mm, 5 µm bead size, Sigma, Dorset) and protected with NewGuard C18 columns (Anachem, Luton, UK). […]
# DBA-2 mice [2] = experiment: Glomerular filtration rate (GFR) by [14C]inulin clearance after bolus drug; assay type: in vivo
# Procedure: as §1
# [3] = Peak plasma concentration in phase I, 30 min infusion; assay type: in vivo; conditions: after 30 min infusion
# Aqueous solubility = assay type: physicochemical
# DBA-2 mice [4] = experiment: Kidney histology (H & E) and immunohistochemical staining for ZD9331; assay type: in vivo
# [5] = female, ip, plasma, DBA-2 mice, 50 mg kg-1 i.p.
# [6] = female, ip, plasma, DBA-2 mice, 200 mg kg-1 i.p.
# [7] = female, iv, plasma, DBA-2 mice, 50 mg kg-1 i.v. bolus
# [8] = female, iv, plasma, DBA-2 mice, 100 mg kg-1 i.v. bolus
# [9] = female, iv, plasma, DBA-2 mice, 200 mg kg-1 i.v. bolus
compound,measurement,setting,value
"C#CCN(Cc1cc2c(=O)[nH]c(C)nc2cc1C)c1ccc(C(=O)N[C@@H](CCc2nnn[nH]2)C(=O)O)c(F)c1 [ZD9331, (2S)-2-{O-fluoro-p-(N-(2,7-dimethyl-4-oxo-3,4-dihydroquinazolin-6-ylmethyl)-N-(prop-2-ynyl)amino}benzamido}-4-(tetrazol-5-yl)butyric acid]",peak plasma concentration i.p. as % of i.v.,[1]; 50 mg kg-1,11%
same,peak plasma concentration i.p. as % of i.v.,[1]; 200 mg kg-1,25%
same,AUC(0-t),"[1]; female, DBA-2, mouse, plasma, ip, 50 mg/kg, plasma, DBA-2 mice, 50 mg kg-1 i.p.",90.1 µM·h
same,half-life,"[1]; female, DBA-2, mouse, plasma, ip, 50 mg/kg, plasma, DBA-2 mice, 50 mg kg-1 i.p., read-out: t1/2",93.4 min
same,AUC(0-t),"[1]; female, DBA-2, mouse, plasma, ip, 200 mg/kg, plasma, DBA-2 mice, 200 mg kg-1 i.p.",315 µM·h
same,half-life,"[1]; female, DBA-2, mouse, plasma, ip, 200 mg/kg, plasma, DBA-2 mice, 200 mg kg-1 i.p., read-out: t1/2",99 min
same,bioavailability,"[1]; female, DBA-2, mouse, plasma, ip, 50 mg kg-1, read-out: i.p. bioavailability",80%
same,concentration at 4 h,"[1]; female, DBA-2, mouse, plasma, ip, 50 mg kg-1 i.p.",1000 nM
same,concentration at 4 h,"[1]; female, DBA-2, mouse, plasma, ip, 200 mg kg-1 i.p.",1860 nM
same,AUC(0-t),"[1]; female, DBA-2, mouse, plasma, iv, 50 mg/kg, plasma, DBA-2 mice, 50 mg kg-1 i.v. bolus",75.3 µM·h
same,half-life,"[1]; female, DBA-2, mouse, plasma, iv, 50 mg/kg, plasma, DBA-2 mice, 50 mg kg-1 i.v. bolus, read-out: t1/2 (apparent terminal elimination)",57 min
same,AUC(0-t),"[1]; female, DBA-2, mouse, plasma, iv, 100 mg/kg, plasma, DBA-2 mice, 100 mg kg-1 i.v. bolus",109 µM·h
same,half-life,"[1]; female, DBA-2, mouse, plasma, iv, 100 mg/kg, plasma, DBA-2 mice, 100 mg kg-1 i.v. bolus, read-out: t1/2",91.7 min
same,AUC(0-t),"[1]; female, DBA-2, mouse, plasma, iv, 200 mg/kg, plasma, DBA-2 mice, 200 mg kg-1 i.v. bolus",332 µM·h
same,half-life,"[1]; female, DBA-2, mouse, plasma, iv, 200 mg/kg, plasma, DBA-2 mice, 200 mg kg-1 i.v. bolus, read-out: t1/2",64.5 min
same,concentration at 4 h,"[1]; female, DBA-2, mouse, plasma, iv, 50 mg kg-1 i.v.",1100 nM
same,concentration at 2 min,"[1]; female, DBA-2, mouse, plasma, iv, 100 mg kg-1 i.v., read-out: plasma drug concentration at 2 min",898000 nM
same,concentration at 5 min,"[1]; female, DBA-2, mouse, plasma, iv, 100 mg kg-1 i.v., read-out: plasma drug concentration at 5 min",771000 nM
same,concentration at 4 h,"[1]; female, DBA-2, mouse, plasma, iv, 200 mg kg-1 i.v.",1300 nM
same,Cmax,[1]; [5],74100 ng/mL and 139 µM
same,Tmax,[1]; [5],10 min
same,Cmax,[1]; [6],483000 ng/mL and 906 µM
same,Tmax,[1]; [6],10 min
same,Cmax,[1]; [7],696000 ng/mL and 1.31 mM
same,Tmax,[1]; [7],1 min
same,Cmax,[1]; [8],708000 ng/mL and 1.32 mM
same,Tmax,[1]; [8],1 min
same,Cmax,[1]; [9],1.9e+06 ng/mL and 3.63 mM
same,Tmax,[1]; [9],1 min
same,relation of plasma drug exposure (AUC) to dose,"[1]; i.p., range 0-200 mg kg-1",linearly related to dose
same,relation of plasma drug exposure (AUC) to dose,"[1]; i.v., up to 200 mg kg-1",marked deviation from linearity at the highest dose
same,peak plasma concentration,"[1]; plasma, 50 mg kg-1 i.v.",1.3 mM
same,i.p. AUC0-8h as % of i.v.,"[1]; plasma, 200 mg kg-1",63%
same,t1/2 (apparent terminal elimination),"[1]; plasma, DBA-2 mice, 50 mg kg-1 i.v. bolus",57.7 min
same,effect on renal function (GFR),"DBA-2 mice [2]; 50 mg kg-1, 4 h after administration",minimal effects on renal function
same,effect on GFR,"DBA-2 mice [2]; 150 mg kg-1 i.p., 24 h after administration",no effect
same,effect on GFR,"DBA-2 mice [2]; 150 mg kg-1 i.v., 4 h after administration",slight decrease in GFR
same,effect on GFR,"DBA-2 mice [2]; 150 mg kg-1 i.v., 24 h after administration",no effect
same,effect on GFR,DBA-2 mice [2]; 200 mg kg-1 i.p.,minimal
same,effect on GFR,"DBA-2 mice [2]; 200 mg kg-1 i.v., 4 h after administration",profound decrease in GFR
same,effect on GFR,"DBA-2 mice [2]; 200 mg kg-1 i.v., 24 h after administration",GFR inhibition was less profound
same,nephrotoxicity,"DBA-2 mice [2]; active anti-tumour dose, 50 mg kg-1 i.p., mice",non-nephrotoxic
same,effect on renal function (GFR),"DBA-2 mice [2]; doses up to 150 mg kg-1 i.v. or i.p., 4 or 24 h post treatment",no evidence of compromised renal function
same,peak plasma drug concentration in man as % of that after 200 mg kg-1 i.v. in mouse,[3],< 1%
same,solubility,"Aqueous solubility; pH 5.3, aqueous buffer",0.1 mM
same,solubility,"Aqueous solubility; pH 7.4, aqueous buffer",8 mM
same,renal histology,"DBA-2 mice [4]; 200 mg kg-1 i.v., 4 h after","evidence of tubular dilatation (Figure SB), with the presence of fine granular casts in the tubules"
same,drug distribution in kidney tissue (histology with immunohistochemical staining),"DBA-2 mice [4]; 200 mg kg-1 i.v., data not shown",uniform drug distribution in tissue with no evidence of drug precipitation
same,renal histology,DBA-2 mice [4]; lower drug doses,some tubular dilatation
